Laboratory results as given in US20210290624A1, “METHODS OF TREATING CANCERS CHARACTERIZED BY A HIGH EXPRESSION LEVEL OF SPINDLE AND KINETOCHORE ASSOCIATED COMPLEX SUBUNIT 3 (SKA3) GENE” (UNIVERSITY HEALTH NETWORK, priority 2018, published 2021).

Tested on: breast cancer cell lines
Assay: sulforhodamine B (SRB) drug sensitivity assay in breast cancer cell line panel
Assay type: cell-based
Settings: panel of 52 breast cancer cell lines, 5 days of treatment, FIG. 1
Text: A breast cancer cell line panel, previously described (Marcotte et al., Cell, 164(1-2), 2016293-309), was assembled for in vitro drug sensitivity profiling, and mated with available gene expression data. The RNA-seq reads were aligned to the Ensembl Genome Reference Consortium release GRCh38 using Kallisto pipeline (Bray et al., Nature Biotechnology, 201634(5), 525-527). Expression values were computed as log2(TPM+0.001), where TPM represents the number of transcripts per million mapped reads units which control for sequence length and sequencing depth. The status of SKA3 expression (high vs low expression) can be determined from a reference population such as the breast cancer TCGA cohort (see FIG. 6).
Response of breast cancer cell lines to compound CFI-402257 (a TTK inhibitor, see the structure below) was evaluated using sulforhodamine B (SRB) assays. The compound was synthesized as previously described (See Liu et al., ACS Medicinal Chemistry Letters, 20167(7), 671-675).
Cells were seeded in 96-well plates and treated with serial drug dilutions. After 5 days of treatment, cells were fixed, stained with SRB, solubilized, and absorbance quantified on a spectrophotometer. For all drug response assays, cell viabilities are reported as the proportion of growth in drug relative to DMSO treated conditions. […]

## Cc1cc(-c2cnn3c(NC[C@H]4C[C@@](C)(O)C4)cc(Oc4cccnc4)nc23)ccc1C(=O)NC1CC1 [CFI-402257]
  in vitro sensitivity (area above the drug dose-response curve, AAC): Differential in vitro sensitivity
